Counter-ions that a name gives are not always drawn. Like-named read-outs stand apart in the source and are kept apart here.
Key:
Format in all cases: cell-based, human
[1] = tested on: HTT mRNA; assay: Splicing RT-qPCR assay, HTT canonical (CJ) and alternative (AJ) junction mRNA; conditions: Homo sapiens, A673 or K562 cells, 24 hours compound treatment; for IC50: 24 h, read-out: HTT CJ (IC50, decrease in canonical junction mRNA); for AC50: read-out: HTT AJ (AC50, increase in alternative junction mRNA)
Outline: (§1)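 Compound-induced exon inclusion is tracked as an increase in AJ transcript alongside the CJ transcript. Cells (A673 normalized to PPIA; K562 to GAPDH or GUSB) are dosed 24 h with a serial dilution topping at 10 uM, ≤0.25% DMSO, then lysed and analysed by RT-qPCR in at least duplicate.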

[2] = tested on: MYB mRNA; assay: Splicing RT-qPCR assay, MYB canonical (CJ) and alternative (AJ) junction mRNA; conditions: Homo sapiens; for AC50: read-out: MYB AJ (AC50, increase in alternative junction mRNA)
Outline: as §1

[3] = tested on: SMN2 mRNA; assay: Splicing RT-qPCR gene panel, SMN2 canonical junction (CJ) mRNA; conditions: Homo sapiens, Tables 4A/4B, read-out: SMN2 (IC50, decrease in CJ mRNA, gene panel)
Outline: (§2)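 A673 or K562 cells treated 24 h at 37° C. with an 11-point 3-fold dilution series (top 10 uM, ≤0.25% DMSO). Lysates analysed by one-step RT-qPCR for canonical exon-exon junction transcripts, normalized to GAPDH, GUSB or PPIA and DMSO control (2^(−ΔΔCt)), then converted to percentage response.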

[4] = tested on: Target C mRNA; assay: Splicing RT-qPCR gene panel, Target C canonical junction (CJ) mRNA; conditions: Homo sapiens, Tables 4A/4B, read-out: Target C (IC50, decrease in CJ mRNA, gene panel)
Outline: as §2

[5] = tested on: HTT mRNA; assay: Splicing RT-qPCR gene panel, HTT canonical junction (CJ) mRNA; conditions: Homo sapiens, Tables 4A/4B, read-out: HTT (IC50, decrease in CJ mRNA, gene panel)
Outline: as §2

[6] = 24 h, A673 or K562 cells, 24 hours compound treatment, RT-qPCR
[7] = 24 h, A673 or K562 cells, 24 hours compound treatment, RT-qPCR, read-out: MYB CJ (IC50, decrease in canonical junction mRNA)
[8] = Tables 4A/4B, canonical junction qPCR panel, read-out: MYB (IC50, decrease in CJ mRNA, gene panel)

SMILES	IC50 [1]	IC50 [2, 7]	IC50 [2, 8]	IC50 [3]	IC50 [4]	IC50 [5]	AC50 [1]	AC50 [2, 6]
COc1c(NC(=O)c2ccc(N3CCNCC3)c3cn(C)nc23)cc2cn(C)nc2c1F [Compound 315, N-(7-fluoro-6-methoxy-2-methylindazol-5-yl)-2-methyl-4-(piperazin-1-yl) indazole-7-carboxamide hydrochloride]	0.1 to 1 µM	< 0.1 µM	< 0.1 µM	< 0.1 µM	0.1 to 1 µM	0.1 to 1 µM	0.1 to 1 µM	< 0.1 µM
Cc1cn2cc(NC(=O)c3ccc(N4CCNCC4)c4cn(CC(F)(F)F)nc34)cc(F)c2n1 [Compound 316, N-{8-fluoro-2-methylimidazo[1,2-a]pyridin-6-yl}-4-(piperazin-1-yl)-2-(2,2,2-trifluoroethyl)indazole-7-carboxamide]	> 10 µM	1 to 10 µM	1 to 10 µM	0.1 to 1 µM	> 10 µM	> 10 µM	> 10 µM	0.1 to 1 µM
Cc1cc(NC(=O)c2ccc(N3CCNCC3)c3cn(C)nc23)cc2cn(C)nc12 [Compound 320, N-(2,7-dimethylindazol-5-yl)-2-methyl-4-(piperazin-1-yl) indazole-7-carboxamide; trifluoroacetic acid]	1 to 10 µM	0.1 to 1 µM	0.1 to 1 µM	< 0.1 µM	> 10 µM	1 to 10 µM	1 to 10 µM	0.1 to 1 µM
Cc1cn2cc(NC(=O)c3ccc(N4CCNCC4)c4cn(CC(O)CO)nc34)cc(F)c2n1 (stereo not drawn) [Compound 329, 2-(2,3-dihydroxypropyl)-N-{8-fluoro-2-methylimidazo[1,2-a]pyridin-6-yl}-4-(piperazin-1-yl)indazole-7-carboxamide]	> 10 µM	> 10 µM	> 10 µM	1 to 10 µM	> 10 µM	> 10 µM	> 10 µM	> 10 µM
Cc1nc2c(F)cc(NC(=O)c3ccc(N4CCNCC4)c4cn(C)nc34)cc2n1C [Compound 332, N-(7-fluoro-2,3-dimethyl-1,3-benzodiazol-5-yl)-2-methyl-4-(piperazin-1-yl) indazole-7-carboxamide; trifluoroacetic acid]	> 10 µM	> 10 µM	> 10 µM	> 10 µM	> 10 µM	> 10 µM	> 10 µM	> 10 µM
Cc1cn2cc(NC(=O)c3ccc(N4CCNCC4)c4cn(C)nc34)c(F)cc2n1 [Compound 333, N-{7-fluoro-2-methylimidazo[1,2-a]pyridin-6-yl}-2-methyl-4-(piperazin-1-yl) indazole-7-carboxamide trifluoroacetate]	1 to 10 µM	0.1 to 1 µM	0.1 to 1 µM	< 0.1 µM	> 10 µM	1 to 10 µM	1 to 10 µM	0.1 to 1 µM
Cc1cn2cc(NC(=O)c3ccc(N4C[C@@H](C)N[C@@H](C)C4)c4cn(C)nc34)nc(C)c2n1 [Compound 334, N-{2,8-dimethylimidazo[1,2-a]pyrazin-6-yl}-4-[(3R,5S)-3,5-dimethylpiperazin-1-yl]-2-methylindazole-7-carboxamide]	> 10 µM	0.1 to 1 µM	0.1 to 1 µM	< 0.1 µM	> 10 µM	> 10 µM	> 10 µM	0.1 to 1 µM

The next lines start with results.

IC50 [1]	IC50 [2, 7]	IC50 [2, 8]	IC50 [3]	IC50 [4]	IC50 [5]	SMILES	AC50 [1]	AC50 [2, 6]
> 10 µM	0.1 to 1 µM	0.1 to 1 µM	< 0.1 µM	> 10 µM	> 10 µM	Cc1cn2cc(NC(=O)c3ccc(N4CCNCC4)c4cn(Cc5cncnc5)nc34)cc(F)c2n1 [Compound 318, N-{8-fluoro-2-methylimidazo[1,2-a]pyridin-6-yl}-4-(piperazin-1-yl)-2-(pyrimidin-5-ylmethyl)indazole-7-carboxamide]	> 10 µM	0.1 to 1 µM
1 to 10 µM	< 0.1 µM	< 0.1 µM	< 0.1 µM	1 to 10 µM	1 to 10 µM	Cn1cc2cc(NC(=O)c3ccc(N4CCNCC4)c4cn(C)nc34)cc(F)c2n1 [Compound 319, N-(7-fluoro-2-methylindazol-5-yl)-2-methyl-4-(piperazin-1-yl) indazole-7-carboxamide hydrochloride]	1 to 10 µM	< 0.1 µM
> 10 µM	> 10 µM	> 10 µM	> 10 µM	> 10 µM	> 10 µM	Cc1cc(NC(=O)c2ccc(N3CCNCC3)c3cn(C)nc23)cc2c1nc(C)n2C [Compound 321, 2-methyl-4-(piperazin-1-yl)-N-(2,3,7-trimethyl-1,3-benzodiazol-5-yl) indazole-7-carboxamide trifluoroacetate]	> 10 µM	> 10 µM
> 10 µM	1 to 10 µM	1 to 10 µM	1 to 10 µM	> 10 µM	> 10 µM	Cc1cn2nc(NC(=O)c3ccc(N4CCNCC4)c4cn(C)nc34)cc(C)c2n1 [Compound 322, N-{2,8-dimethylimidazo[1,2-b]pyridazin-6-yl}-2-methyl-4-(piperazin-1-yl) indazole-7-carboxamide hydrochloride]	> 10 µM	> 10 µM
< 0.1 µM	< 0.1 µM	< 0.1 µM	< 0.1 µM	1 to 10 µM	< 0.1 µM	COc1nc(NC(=O)c2ccc(N3CCNCC3)c3cn(C)nc23)cn2cc(C)nc12 [Compound 323]	0.1 to 1 µM	< 0.1 µM
> 10 µM	0.1 to 1 µM	0.1 to 1 µM	< 0.1 µM	> 10 µM	> 10 µM	Cn1cc2cc(NC(=O)c3ccc(N4CCNCC4)c4cn(C)nc34)ccc2n1 [Compound 324, 2-methyl-N-(2-methylindazol-5-yl)-4-(piperazin-1-yl) indazole-7-carboxamide hydrochloride]	1 to 10 µM	0.1 to 1 µM
> 10 µM	1 to 10 µM	1 to 10 µM	< 0.1 µM	> 10 µM	> 10 µM	Cc1c(O)c(NC(=O)c2ccc(N3CCNCC3)c3cn(C)nc23)cc2cn(C)nc12 [Compound 325, N-(6-hydroxy-2,7-dimethylindazol-5-yl)-2-methyl-4-(piperazin-1-yl) indazole-7-carboxamide hydrochloride]	> 10 µM	1 to 10 µM
0.1 to 1 µM	< 0.1 µM	< 0.1 µM	< 0.1 µM	1 to 10 µM	0.1 to 1 µM	Cc1cn2cc(NC(=O)c3ccc(N4C[C@@H](C)N[C@@H](C)C4)c4cn(C)nc34)cc(F)c2n1 [Compound 326, 4-[(3R,5S)-3,5-dimethylpiperazin-1-yl]-N-{8-fluoro-2-methylimidazo[1,2-a]pyridin-6-yl}-2-methylindazole-7-carboxamide]	0.1 to 1 µM	< 0.1 µM
> 10 µM	0.1 to 1 µM	0.1 to 1 µM	0.1 to 1 µM	> 10 µM	> 10 µM	Cc1cn2cc(NC(=O)c3ccc(N4CCC(CN)C4)c4cn(C)nc34)cc(F)c2n1 (stereo not drawn) [Compound 327, 4-[3-(aminomethyl)pyrrolidin-1-yl]-N-{8-fluoro-2-methylimidazo[1,2-a]pyridin-6-yl}-2-methylindazole-7-carboxamide]	> 10 µM	0.1 to 1 µM
> 10 µM	1 to 10 µM	1 to 10 µM	0.1 to 1 µM	> 10 µM	> 10 µM	CC(=O)NC1CCN(c2ccc(C(=O)Nc3cc(F)c4nc(C)cn4c3)c3nn(C)cc23)CC1 [Compound 328, 4-(4-acetamidopiperidin-1-yl)-N-{8-fluoro-2-methylimidazo[1,2-a]pyridin-6-yl}-2-methylindazole-7-carboxamide]	> 10 µM	> 10 µM
> 10 µM	0.1 to 1 µM	0.1 to 1 µM	< 0.1 µM	> 10 µM	> 10 µM	CCN(CC)C1CCN(c2ccc(C(=O)Nc3cc(F)c4nc(C)cn4c3)c3nn(CCOC)cc23)C1 (stereo not drawn) [Compound 330, 4-(3-(diethylamino)pyrrolidin-1-yl)-N-(8-fluoro-2-methylimidazo[1,2-a]pyridin-6-yl)-2-(2-methoxyethyl)-2H-indazole-7-carboxamide compound with 2,2,2-trifluoro-113-ethan-1-one]	> 10 µM	0.1 to 1 µM
